Starred links: 1 amine or outer side, 2 acyl side, 3 side chain; linkers in the order of their positions; H or OH if unused. Positions of bridges follow the written chain, without caps; N, C: chain ends. Non-standard residues stand in square brackets, D forms with d. Residues, ends and D or L forms follow the SMILES beside them. *: point of attachment. X3 = CN(CCCCC(=O)N[C@@H](CS[*:2])C(=O)[*:1])[*:3]; Trp(7-Me) = Cc1cccc2c(C[C@H](N)C(=O)O)c[nH]c12; 2Nal = N[C@@H](Cc1ccc2ccccc2c1)C(=O)O; AEF = NCCOc1ccc(C[C@H](N)C(=O)O)cc1; 3Pal = N[C@@H](Cc1cccnc1)C(=O)O; αMeL = CC(C)C[C@](C)(N)C(=O)O; Thp = NC1(C(=O)O)CCOCC1; Me2NCH2CH2 = CN(C)CC*; Aib = CC(C)(N)C(=O)O; Ahx = NCCCCCC(=O)O; Ava = NCCCCC(=O)O; βAla = NCCC(=O)O; Sar = CNCC(=O)O
Test system: Pancreatin
Assay: Protease stability in simulated intestinal fluid (Pancreatin-SIF, FaSSIF)
Assay type: in vitro ADME
Conditions: 1 μM peptide, 37° C.; for remaining at 1 h, 1 µM: 60 min, read-out: FaSSIF 60 (min), remaining percent of peptide; for remaining at 2 h, 1 µM: 120 min, read-out: FaSSIF 120 (min), remaining percent of peptide; for remaining at 4 h, 1 µM: 240 min, read-out: FaSSIF 240 (min), remaining percent of peptide
Procedure, shortened: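 LC-MS/MS peak areas at 0, 60, 120 and 240 min, normalised to time 0 as 100%, give percent remaining. Reactions used 1 μM final peptide at 37° C in pancreatin-SIF (1 mg pancreatin in 10 mL SIF concentrate) and were stopped with ethanol containing 0.1% HCOOH.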

SMILES | remaining at 1 h, 1 µM [%] | remaining at 2 h, 1 µM [%] | remaining at 4 h, 1 µM [%]
CC(=O)NCCCC[C@@H]1NC(=O)[C@H](Cc2c[nH]c3c(C)cccc23)NC(=O)[C@H]([C@@H](C)O)NC(=O)[C@H](CC(N)=O)NC(=O)[C@@H]2CSSC[C@H](NC1=O)C(=O)N[C@@H](Cc1ccc(OCCN(C)C)cc1)C(=O)N[C@@H](Cc1ccc3ccccc3c1)C(=O)NC(C)(C)C(=O)N[C@H](C(=O)N[C@@H](CC(N)=O)C(=O)N[C@@H](Cc1c[nH]cn1)C(=O)N(C)CC(N)=O)CCC(=O)NCCCCC(=O)N2 [compound 45] ([Ava]CNT[Trp(7-Me)]K(Ac)CY(Me2NCH2CH2)[2Nal][Aib]ENH[Sar]-NH2; disulfide 2-7; lactam N-11) | 82 | 83 | 74
CC(=O)N[C@H]1CCCCNC(=O)[C@@H]2CSSC[C@H](NC(=O)[C@H](CCC(N)=O)NC(=O)[C@H](Cc3c[nH]c4ccccc34)NC1=O)C(=O)N[C@@H](Cc1ccc(OCCN)cc1)C(=O)N[C@@H](Cc1ccc3ccccc3c1)C(=O)NC1(CCOCC1)C(=O)N[C@H](C(=O)N[C@@H](C)C(=O)N[C@H](CC(C)C)C(N)=O)CCC(=O)N(C)CCCCC(=O)N2 [compound 34] (Ac-KWQC[AEF][2Nal][Thp]EA[dL]-NH2; linker 1-4-8 via X3) | 100 | 99 | 96
CC(=O)N[C@H]1CCCCNC(=O)[C@@H]2CSSC[C@H](NC(=O)[C@H](CCC(N)=O)NC(=O)[C@H](Cc3c[nH]c4ccccc34)NC1=O)C(=O)N[C@@H](Cc1ccc(OCCN)cc1)C(=O)N[C@@H](Cc1ccc3ccccc3c1)C(=O)NC(C)(C)C(=O)N[C@H](C(=O)N[C@@H](C)C(=O)N[C@H](CC(C)C)C(N)=O)CCC(=O)N(C)CCCCC(=O)N2 [compound 19] (Ac-KWQC[AEF][2Nal][Aib]EA[dL]-NH2; linker 1-4-8 via X3) | 92 | 81 | 76
CC(=O)N[C@H]1CCCCNC(=O)[C@@H]2CSSC[C@H](NC(=O)[C@H](CCC(N)=O)NC(=O)[C@H](Cc3c[nH]c4ccccc34)NC1=O)C(=O)N[C@@H](Cc1ccc(OCCN)cc1)C(=O)N[C@@H](Cc1ccc3ccccc3c1)C(=O)NC(C)(C)C(=O)N[C@H](C(=O)N[C@@H](CC(N)=O)C(=O)N[C@@H](CC(N)=O)C(N)=O)CCC(=O)N(C)CCCCC(=O)N2 [compound 12] (Ac-KWQC[AEF][2Nal][Aib]ENN-NH2; linker 1-4-8 via X3) | 74 | 59 | 41
C[C@@H](O)[C@@H]1NC(=O)[C@H](CC(N)=O)NC(=O)[C@@H]2CSSC[C@H](NC(=O)[C@H](CCC(N)=O)NC(=O)[C@H](Cc3c[nH]c4ccccc34)NC1=O)C(=O)N[C@@H](Cc1ccc(OCCN)cc1)C(=O)N[C@@H](Cc1ccc3ccccc3c1)C(=O)NC(C)(C)C(=O)N[C@H](C(=O)N[C@@H](CC(N)=O)C(=O)NCC(N)=O)CC(=O)NCCCCCC(=O)N2 [compound 9] ([Ahx]CNTWQC[AEF][2Nal][Aib]DNG-NH2; disulfide 2-7; lactam N-11) | 102 | 100 | 85
COc1ccc(C[C@@H]2NC(=O)[C@@H]3CSSC[C@H](NC(=O)CCCCNC(=O)CC[C@@H](C(=O)N[C@@H](CC(N)=O)C(=O)NCC(N)=O)NC(=O)C(C)(C)NC(=O)[C@H](Cc4ccc5ccccc5c4)NC2=O)C(=O)N[C@@H](CC(N)=O)C(=O)N[C@@H]([C@@H](C)O)C(=O)N[C@@H](Cc2c[nH]c4ccccc24)C(=O)N[C@@H](CCC(N)=O)C(=O)N3)cc1 [compound 4] ([Ava]CNTWQCY(Me)[2Nal][Aib]ENG-NH2; disulfide 2-7; lactam N-11) | 91 | 82 | 73
CC(C)C[C@@H](NC(=O)[C@H](CC(N)=O)NC(=O)[C@@H]1CCC(=O)NCCCCC(=O)N[C@H]2CSSC[C@H](NC(=O)[C@H](CCC(N)=O)NC(=O)[C@H](Cc3c[nH]c4ccccc34)NC(=O)[C@H]([C@@H](C)O)NC(=O)[C@H](CC(N)=O)NC2=O)C(=O)N[C@@H](Cc2ccc(OCCN(C)C)cc2)C(=O)N[C@@H](Cc2ccc3ccccc3c2)C(=O)N[C@@](C)(CC(C)C)C(=O)N1)C(N)=O [compound 10] ([Ava]CNTWQCY(Me2NCH2CH2)[2Nal][αMeL]EN[dL]-NH2; disulfide 2-7; lactam N-11) | 84 | 81 | 80

Results, then the compound that gave them:

remaining at 1 h, 1 µM [%] | remaining at 2 h, 1 µM [%] | remaining at 4 h, 1 µM [%] | SMILES
85 | 75 | 74 | CC(=O)NCCCC[C@@H]1NC(=O)[C@H](Cc2c[nH]c3c(C)cccc23)NC(=O)[C@H]([C@@H](C)O)NC(=O)[C@H](CC(N)=O)NC(=O)[C@@H]2CSSC[C@H](NC1=O)C(=O)N[C@@H](Cc1ccc(OCCN(C)C)cc1)C(=O)N[C@@H](Cc1ccc3ccccc3c1)C(=O)NC1(CCOCC1)C(=O)N[C@H](C(=O)N[C@@H](CC(N)=O)C(=O)N[C@@H](Cc1c[nH]cn1)C(=O)NCCC(N)=O)CCC(=O)NCCCCC(=O)N2 [compound 49] ([Ava]CNT[Trp(7-Me)]K(Ac)CY(Me2NCH2CH2)[2Nal][Thp]ENH[βAla]-NH2; disulfide 2-7; lactam N-11)
95 | 85 | 85 | CC(=O)NCCCC[C@@H]1NC(=O)[C@H](Cc2c[nH]c3c(C)cccc23)NC(=O)[C@H]([C@@H](C)O)NC(=O)[C@H](CC(N)=O)NC(=O)[C@@H]2CSSC[C@H](NC1=O)C(=O)N[C@@H](Cc1ccc(OCCN(C)C)cc1)C(=O)N[C@@H](Cc1ccc3ccccc3c1)C(=O)N[C@@](C)(CC(C)C)C(=O)N[C@H](C(=O)N[C@@H](CC(N)=O)C(=O)N[C@@H](Cc1c[nH]cn1)C(=O)NCCC(N)=O)CCC(=O)NCCCCC(=O)N2 [compound 50] ([Ava]CNT[Trp(7-Me)]K(Ac)CY(Me2NCH2CH2)[2Nal][αMeL]ENH[βAla]-NH2; disulfide 2-7; lactam N-11)
89 | 82 | 81 | CC(=O)NCCCC[C@@H]1NC(=O)[C@H](Cc2c[nH]c3c(C)cccc23)NC(=O)[C@H]([C@@H](C)O)NC(=O)[C@H](CC(N)=O)NC(=O)[C@@H]2CSSC[C@H](NC1=O)C(=O)N[C@@H](Cc1ccc(OCCN(C)C)cc1)C(=O)N[C@@H](Cc1ccc3ccccc3c1)C(=O)NC1(CCOCC1)C(=O)N[C@H](C(=O)N[C@@H](CC(N)=O)C(=O)N[C@@H](Cc1c[nH]cn1)C(=O)N(C)CC(N)=O)CCC(=O)NCCCCC(=O)N2 [compound 46] ([Ava]CNT[Trp(7-Me)]K(Ac)CY(Me2NCH2CH2)[2Nal][Thp]ENH[Sar]-NH2; disulfide 2-7; lactam N-11)
92 | 86 | 78 | CC(=O)NCCCC[C@@H]1NC(=O)[C@H](Cc2c[nH]c3c(C)cccc23)NC(=O)[C@H]([C@@H](C)O)NC(=O)[C@H](CC(N)=O)NC(=O)[C@@H]2CSSC[C@H](NC1=O)C(=O)N[C@@H](Cc1ccc(OCCN(C)C)cc1)C(=O)N[C@@H](Cc1ccc3ccccc3c1)C(=O)NC1(CCOCC1)C(=O)N[C@H](C(=O)N[C@@H](CC(N)=O)C(=O)N[C@@H](Cc1cccnc1)C(N)=O)CCC(=O)NCCCCC(=O)N2 [compound 51] ([Ava]CNT[Trp(7-Me)]K(Ac)CY(Me2NCH2CH2)[2Nal][Thp]EN[3Pal]-NH2; disulfide 2-7; lactam N-11)
87 | 85 | 82 | CC(=O)NCCCC[C@@H]1NC(=O)[C@H](Cc2c[nH]c3c(C)cccc23)NC(=O)[C@H]([C@@H](C)O)NC(=O)[C@H](CC(N)=O)NC(=O)[C@@H]2CSSC[C@H](NC1=O)C(=O)N[C@@H](Cc1ccc(OCCN(C)C)cc1)C(=O)N[C@@H](Cc1ccc3ccccc3c1)C(=O)N[C@@](C)(CC(C)C)C(=O)N[C@H](C(=O)N[C@@H](CC(N)=O)C(=O)N[C@@H](Cc1c[nH]cn1)C(=O)N(C)CC(N)=O)CCC(=O)NCCCCC(=O)N2 [compound 47] ([Ava]CNT[Trp(7-Me)]K(Ac)CY(Me2NCH2CH2)[2Nal][αMeL]ENH[Sar]-NH2; disulfide 2-7; lactam N-11)
